{"source": "patent US4652636A", "about": "“Pentene-diphenyl-diglucoside containing compound” (priority 1982, dated 1987)", "key": {"[1]": {"experiment": "Acute toxicity evaluation of (I), mouse", "format": "in vivo", "settings": "in vivo, ip, mouse, intraperitoneal, dead/treated (range %)", "method": "(§1) Solutions of (I) in distilled water were prepared with the required concentration. Administered volumes were kept constant at the rate of 10 cm^3 per kg. In each case equal numbers of males and females were treated with a single dose. All animals were observed over 7 days for signs of toxic and/or pharmaco-dynamic effects.\n(§2) A necropsy was performed on all surviving animals."}, "Mouse": {"system": "Mouse", "experiment": "Acute toxicity evaluation of (I), mouse", "format": "in vivo", "settings": "for Mortality (Range %): dead/treated", "method": "as §1, §2"}, "Rabbits": {"system": "Rabbits", "experiment": "Acute toxicity evaluation of (I), rabbits", "format": "in vivo, rabbit", "settings": "intravenous; for Mortality (Range %): dead/treated", "method": "as §1, §2"}, "pregnant mouse foeti": {"system": "pregnant mouse foeti", "experiment": "Foetotoxic-teratogenic effect of (I) in pregnant mice", "format": "in vivo, mouse (Swiss Webster)", "settings": "for No of foeti / No of implantation sites / No of live foeti / No of malformations: 6 mice", "method": "Two groups of six fully impregnated mice (Swiss Webster offspring) were treated orally with aqueous solutions of (I) once per day (10 ml/kg) starting day 1 through to day 8 of the gestation period. On day 20 of the pregnancies the mice were lightly anaethetised with diethyl ether and the uterus exposed by caesarian section. The total number of implantation sites were counted. All foeti were removed and examined for\n(b) macroscopic gross anatomical abnormalities of limbs and head."}, "Mouse sarcoma--Ms 52 B": {"system": "Mouse sarcoma--Ms 52 B", "experiment": "In vitro cytostatic cytotoxic effects, MS 52 B", "format": "cell-based", "settings": "I 40 ng, 37° C.", "method": "(§3) \"In vitro\" cytostatic cytotoxic effects with Hypoxis rooperi extracts (example 2(e)(i)) and Compound I Four different cell culture types were used:\ni. Mouse sarcoma--Ms 52 B\n(§4) Procedure: Trypsinized cells were harvested into MEM and suitably diluted to supply about 2×10^5 cells per cm^3. A culture flask containing 4,5 cm^3 of culture medium was seeded with 0.5 cm^3 of the prepared cell suspension. This cell culture was then incubated at 37° C. for 24 hours before the test substances dissolved in 0.5 cm^3 of the culture medium were added."}, "Mouse melacoma--Mel B1-6": {"system": "Mouse melacoma--Mel B1-6", "experiment": "In vitro cytostatic cytotoxic effects, Mel B1-6", "format": "cell-based", "settings": "Mel B1-6, I 40 ng, 37° C.", "method": "as §3\nii. Mouse melacoma--Mel B1-6\nas §4"}, "Heha 229": {"system": "Heha 229", "experiment": "In vitro cytostatic cytotoxic effects, Heha 229", "format": "cell-based", "settings": "Heha 229, I 40 ng, 37° C.", "method": "as §3, §4"}, "[2]": {"system": "Human foetal foreskin fibroblasts--HFSF", "experiment": "In vitro cytostatic cytotoxic effects, HFSF (non-malignant)", "format": "cell-based", "settings": "I 40 ng, 37° C.", "method": "as §3\niv. Human foetal foreskin fibroblasts--HFSF (non-malignant)\nas §4"}}, "data": [{"smiles": "OC[C@H]1O[C@@H](Oc2ccc(C#CC/C=C/c3ccc(O[C@@H]4O[C@H](CO)[C@@H](O)[C@H](O)[C@H]4O)c(O)c3)cc2O)[C@H](O)[C@@H](O)[C@@H]1O", "note": "[Compound I]", "values": [{"measurement": "mortality at 168 h", "setting": "[1]; 1000 mg/kg", "result": 16.7, "unit": "%"}, {"measurement": "mortality at 168 h", "setting": "[1]; 2000 mg/kg", "result": 90, "unit": "%"}, {"measurement": "direct toxic effects (conclusion)", "setting": "Mouse; acute toxicity, single dose", "result": "low degree of direct toxic effects"}, {"measurement": "Mortality (Range %)", "setting": "Mouse; mouse, intraperitoneal, 250 mg/kg", "result": "0/10"}, {"measurement": "Mortality (Range %)", "setting": "Mouse; mouse, intraperitoneal, 500 mg/kg", "result": "0/20"}, {"measurement": "Remarks: signs of discomfort", "setting": "Mouse; mouse, intraperitoneal, all animals, increasing with dose", "result": "discomfort"}, {"measurement": "Mortality (Range %)", "setting": "Mouse; mouse, oral, 1000 mg/kg", "result": "0/20"}, {"measurement": "Mortality (Range %)", "setting": "Mouse; mouse, oral, 2000 mg/kg", "result": "0/20"}, {"measurement": "Mortality (Range %)", "setting": "Mouse; mouse, oral, 4000 mg/kg", "result": "0/20"}, {"measurement": "Remarks: macroscopic lesions", "setting": "Mouse; mouse, oral, 1000-4000 mg/kg, any animal", "result": "No macroscopic"}, {"measurement": "macroscopic lesions on necropsy", "setting": "Mouse; surviving animals", "result": "No macroscopic lesions were observed"}, {"measurement": "Mortality (Range %)", "setting": "Rabbits; 50 mg/kg", "result": "0/2"}, {"measurement": "Mortality (Range %)", "setting": "Rabbits; 100 mg/kg", "result": "0/2"}, {"measurement": "Remarks: macroscopic lesions", "setting": "Rabbits; 50 and 100 mg/kg", "result": "no macropscopic"}, {"measurement": "Remarks: thrombophlebitis at the injection site", "setting": "Rabbits; 50 and 100 mg/kg", "result": "No thrombophlebitis"}, {"measurement": "Remarks: visible effects", "setting": "Rabbits; 50 and 100 mg/kg", "result": "No visible effects"}, {"measurement": "No of foeti", "setting": "pregnant mouse foeti; 20 mg/kg oral", "result": 52}, {"measurement": "No of implantation sites", "setting": "pregnant mouse foeti; 20 mg/kg oral", "result": 58}, {"measurement": "No of live foeti", "setting": "pregnant mouse foeti; 20 mg/kg oral", "result": 50}, {"measurement": "No of malformations", "setting": "pregnant mouse foeti; 20 mg/kg oral", "result": 0}, {"measurement": "No of foeti", "setting": "pregnant mouse foeti; 100 mg/kg oral", "result": 49}, {"measurement": "No of implantation sites", "setting": "pregnant mouse foeti; 100 mg/kg oral", "result": 58}, {"measurement": "No of live foeti", "setting": "pregnant mouse foeti; 100 mg/kg oral", "result": 45}, {"measurement": "No of malformations", "setting": "pregnant mouse foeti; 100 mg/kg oral", "result": "3 (2?)"}, {"measurement": "abnormally reduced growth rate of the foeti", "setting": "pregnant mouse foeti; any of the treated groups", "result": "no indications of abnormally reduced growth rate of the foeti"}, {"measurement": "teratogenic effects", "setting": "pregnant mouse foeti; at the doses administered", "result": "unlikely"}, {"measurement": "adverse effects in the treated mother animals", "setting": "pregnant mouse foeti; treated mother animals", "result": "No adverse effects were detected"}, {"measurement": "Confluency", "setting": "Mouse sarcoma--Ms 52 B; 24 hours", "result": 40, "unit": "%"}, {"measurement": "Confluency", "setting": "Mouse sarcoma--Ms 52 B; 48 hours", "result": 20, "unit": "%"}, {"measurement": "Confluency", "setting": "Mouse sarcoma--Ms 52 B; 72 hours", "result": 20, "unit": "%"}, {"measurement": "Confluency", "setting": "Mouse sarcoma--Ms 52 B; 96 hours", "result": 20, "unit": "%"}, {"measurement": "Confluency", "setting": "Mouse melacoma--Mel B1-6; 24 hours", "result": 40, "unit": "%"}, {"measurement": "Confluency", "setting": "Mouse melacoma--Mel B1-6; 48 hours", "result": 30, "unit": "%"}, {"measurement": "Confluency", "setting": "Mouse melacoma--Mel B1-6; 72 hours", "result": 40, "unit": "%"}, {"measurement": "Confluency", "setting": "Mouse melacoma--Mel B1-6; 96 hours", "result": 40, "unit": "%"}, {"measurement": "Confluency", "setting": "Mouse melacoma--Mel B1-6; 120 hours", "result": 30, "unit": "%"}, {"measurement": "Confluency", "setting": "Heha 229; 24 hours", "result": 50, "unit": "%"}, {"measurement": "Confluency", "setting": "Heha 229; 48 hours", "result": 60, "unit": "%"}, {"measurement": "Confluency", "setting": "Heha 229; 72 hours", "result": 50, "unit": "%"}, {"measurement": "Confluency", "setting": "Heha 229; 96 hours", "result": 30, "unit": "%"}, {"measurement": "Confluency", "setting": "[2]; 24 hours", "result": 40, "unit": "%"}, {"measurement": "Confluency", "setting": "[2]; 48 hours", "result": 50, "unit": "%"}, {"measurement": "Confluency", "setting": "[2]; 72 hours", "result": 50, "unit": "%"}, {"measurement": "Confluency", "setting": "[2]; 96 hours", "result": 40, "unit": "%"}]}]}
